This is an account of results in PubChem BioAssay (NCI).

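Values below derive from 48-hour exposures of cells grown in 96-well plates, with endpoints linearly interpolated between the two concentrations bracketing the appropriate inhibition level. Abbreviation: GI50, concentration required for 50% inhibition of growth. TGI is the concentration that stops growth completely.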

Among the test systems are CAKI-1 renal; 786-0 renal; MDA-MB-231 breast; EKVX NSCLC; SF-539 CNS; BT-549 breast; RXF 393 renal; SF-268 CNS; SNB-75 CNS; IGROV1 ovarian.
Common to all, as to assay: NCI anticancer screen, dose series, 48 h

For the compound `COc1cc([C@@H]2c3cc4c(cc3[C@@H](O[C@@H]3O[C@@H]5CO[C@@H](c6cccs6)O[C@H]5[C@H](O)[C@H]3O)[C@H]3COC(=O)[C@H]23)OCO4)cc(OC)c1O`, the GI50 in the assay with CAKI-1 renal was 0.557 µM; in the assay on 786-0 renal it was 0.193 µM; with MDA-MB-231 breast it was 1.56 µM; with EKVX NSCLC, 4.1 µM; with SF-539 CNS it was 0.0972 µM; with BT-549 breast, 0.344 µM. In addition, the GI50 in the assay on RXF 393 renal is 0.409 µM; with SF-268 CNS, 0.266 µM; in the assay on SNB-75 CNS, 0.104 µM. Also, the TGI is 24.2 µM in the assay with CAKI-1 renal; 1.34 µM with 786-0 renal; 7.43 µM in the assay with MDA-MB-231 breast; greater than 100 µM in the assay with EKVX NSCLC; 0.432 µM in the assay on SF-539 CNS; 4.37 µM in the assay with BT-549 breast. In addition, the TGI in the assay on RXF 393 renal was 3.41 µM; in the assay on SF-268 CNS, 7.2 µM; in the assay with SNB-75 CNS, 1.56 µM; with IGROV1 ovarian, 36.7 µM.
Turning to `N#Cc1c(NC(=O)CN2CCOCC2)sc2c1CCCC2`, the GI50 in the assay with CAKI-1 renal, in the assay with 786-0 renal, in the assay on MDA-MB-231 breast, with EKVX NSCLC, in the assay with SF-539 CNS and with BT-549 breast was greater than 25 µM each time. Also, the GI50 in the assay with RXF 393 renal, in the assay on SF-268 CNS, with SNB-75 CNS and in the assay with IGROV1 ovarian was greater than 25 µM throughout. The TGI in the assay on CAKI-1 renal, with 786-0 renal, in the assay with MDA-MB-231 breast, with EKVX NSCLC, with SF-539 CNS and with BT-549 breast was greater than 25 µM throughout. In addition, the TGI with RXF 393 renal, in the assay on SF-268 CNS, with SNB-75 CNS and with IGROV1 ovarian was greater than 25 µM in each case.
With `N#Cc1c(-c2ccccc2)cc(-c2ccccc2)n(CCCCC(=O)NO)c1=O`, the GI50 in the assay with CAKI-1 renal was 1.61 µM; with 786-0 renal it was 2.83 µM; in the assay on MDA-MB-231 breast, 3.27 µM; with EKVX NSCLC, 2.82 µM; in the assay with SF-539 CNS, 2.51 µM; in the assay with BT-549 breast, 3.65 µM. The GI50 was 1.43 µM in the assay on RXF 393 renal, 2.71 µM in the assay with SF-268 CNS, 1.61 µM in the assay with SNB-75 CNS and 2.48 µM in the assay with IGROV1 ovarian. The TGI in the assay with CAKI-1 renal came out at 3.9 µM; with 786-0 renal it was 9.13 µM; in the assay on MDA-MB-231 breast it was 10.1 µM; in the assay with EKVX NSCLC, 11.7 µM; in the assay on SF-539 CNS, 10.4 µM; with BT-549 breast, 16.4 µM. Moreover, the TGI in the assay with RXF 393 renal was 3.36 µM; in the assay on SF-268 CNS, 7.9 µM; in the assay on SNB-75 CNS it was 9.07 µM; with IGROV1 ovarian, 9.34 µM.
Regarding `Oc1cc(O)c2c(=S)cc(-c3ccc(Cl)cc3)oc2c1`, the GI50 in the assay with CAKI-1 renal is 2.95 µM; in the assay on 786-0 renal it was 7.12 µM; with MDA-MB-231 breast, 2 µM; with EKVX NSCLC, 9.36 µM; in the assay with SF-539 CNS it was 3.31 µM; with BT-549 breast it was 3.38 µM. The GI50 was 3.15 µM in the assay on RXF 393 renal, 3.23 µM with SF-268 CNS, 2.23 µM in the assay with SNB-75 CNS and 0.533 µM in the assay on IGROV1 ovarian. Further, the TGI in the assay on CAKI-1 renal turned out to be 19.1 µM; with 786-0 renal, 22.9 µM; in the assay with MDA-MB-231 breast, 6.54 µM; with EKVX NSCLC, 54.1 µM; in the assay with SF-539 CNS it was 17.1 µM; in the assay on BT-549 breast it was 12.6 µM. The TGI came to 12.5 µM in the assay on RXF 393 renal, 21.3 µM with SF-268 CNS, 13.8 µM in the assay on SNB-75 CNS and 16.5 µM in the assay with IGROV1 ovarian.
As for `CCOC(=O)C1=C(C)NC(=O)NC1c1coc2cc(C)cc(C)c2c1=O` (configuration not stated), the TGI with CAKI-1 renal, in the assay on 786-0 renal, with MDA-MB-231 breast, in the assay on EKVX NSCLC, in the assay with SF-539 CNS and in the assay on BT-549 breast was greater than 100 µM each time. Further, the TGI with RXF 393 renal, in the assay on SF-268 CNS, with SNB-75 CNS and in the assay with IGROV1 ovarian was greater than 100 µM in each case.
Consider `CCOC(=O)c1c(C)n2c(=O)cc(C)c3c(OC(C)=O)c(OC(C)=O)cc1c32`, for which the GI50 was 6.37 µM in the assay on CAKI-1 renal; 3.75 µM in the assay on 786-0 renal; 4.34 µM with MDA-MB-231 breast; 4.96 µM with EKVX NSCLC; 4.24 µM in the assay on SF-539 CNS; 6.21 µM in the assay with BT-549 breast. Moreover, the GI50 in the assay with RXF 393 renal was 3.43 µM; in the assay with SF-268 CNS it was 5.26 µM; in the assay with SNB-75 CNS, 6.08 µM; in the assay on IGROV1 ovarian, 4.78 µM. In addition, the TGI in the assay on CAKI-1 renal is greater than 65.9 µM; in the assay with MDA-MB-231 breast it was 34.4 µM; in the assay on EKVX NSCLC, 17.8 µM; in the assay on SF-539 CNS, 21.1 µM; with BT-549 breast, 46.1 µM; in the assay with RXF 393 renal it was 15.8 µM. Further, the TGI with SF-268 CNS is greater than 74.1 µM; in the assay on SNB-75 CNS it was greater than 28.3 µM; in the assay with IGROV1 ovarian, 41.9 µM.
For `CNC(C)C(=O)N[C@H](C(=O)N1CCC[C@@H]1CN(CCc1ccccc1)C(=O)C(F)(F)F)[C@H](C)OCC#CC#CCO[C@H](C)[C@H](NC(=O)[C@H](C)NC)C(=O)N1CCC[C@H]1CN(CCc1ccccc1)C(=O)C(F)(F)F` (some centres not stated), the GI50 with CAKI-1 renal is 2.39 µM; in the assay with 786-0 renal it was 1.65 µM; with MDA-MB-231 breast, less than 0.01 µM; with EKVX NSCLC it was 1.63 µM; with SF-539 CNS, less than 0.01 µM; in the assay with BT-549 breast, less than 0.01 µM. In addition, the GI50 in the assay on RXF 393 renal was 0.0771 µM; with SF-268 CNS it was 1.94 µM; with SNB-75 CNS, less than 0.037 µM; in the assay with IGROV1 ovarian, 2.13 µM. The TGI in the assay with CAKI-1 renal is 5.51 µM; in the assay with 786-0 renal, 3.25 µM; with MDA-MB-231 breast, less than 0.01 µM; in the assay with EKVX NSCLC it was 3.34 µM; with SF-539 CNS, 0.199 µM; in the assay with BT-549 breast it was 1.69 µM. Moreover, the TGI is 0.486 µM with RXF 393 renal, 3.57 µM in the assay with SF-268 CNS, 0.764 µM with SNB-75 CNS and 4.38 µM in the assay on IGROV1 ovarian.
With `CCC1CC(=O)N(SCC(N)C(=O)O)C1=O` (configuration not stated), the TGI with CAKI-1 renal, with 786-0 renal, in the assay on MDA-MB-231 breast, with EKVX NSCLC, with SF-539 CNS and with BT-549 breast was greater than 100 µM in each case. For the same compound, the TGI with RXF 393 renal, in the assay with SF-268 CNS, with SNB-75 CNS and with IGROV1 ovarian was greater than 100 µM throughout.
For the compound `CC1OC(OC2CC(O)C3(CO)C4C(O)CC5(C)C(C6=CC(=O)OC6)CCC5(O)C4CCC3(O)C2)C(O)C(O)C1O` (configuration not stated), the GI50 was less than 0.0146 µM in the assay with CAKI-1 renal; less than 0.0129 µM in the assay with 786-0 renal; 0.129 µM in the assay on MDA-MB-231 breast; less than 0.0107 µM with EKVX NSCLC; less than 0.0132 µM in the assay with SF-539 CNS; less than 0.0129 µM in the assay with BT-549 breast. Besides, the GI50 is less than 0.0129 µM with RXF 393 renal, less than 0.0142 µM with SF-268 CNS and less than 0.0161 µM in the assay on IGROV1 ovarian. Besides, the TGI with CAKI-1 renal was 0.024 µM; with 786-0 renal, less than 0.0179 µM; in the assay with MDA-MB-231 breast, 0.641 µM; with EKVX NSCLC it was less than 0.0142 µM; in the assay on SF-539 CNS, less than 0.0182 µM; in the assay on BT-549 breast, 0.0208 µM. For the same compound, the TGI is less than 0.0202 µM in the assay on RXF 393 renal, 0.0236 µM with SF-268 CNS, 0.099 µM in the assay with SNB-75 CNS and 0.384 µM with IGROV1 ovarian.
Consider `CC(=O)OC1CCC2(C)C(=CCC3C2CCC2(C)C(C(C)C(=O)O)CCC32)C1` (configuration not stated), for which the TGI with CAKI-1 renal, in the assay with 786-0 renal, in the assay with MDA-MB-231 breast, in the assay on EKVX NSCLC, in the assay with SF-539 CNS and in the assay with BT-549 breast was greater than 100 µM in each case. Moreover, the TGI in the assay on RXF 393 renal, with SF-268 CNS, in the assay on SNB-75 CNS and in the assay on IGROV1 ovarian was greater than 100 µM each time.
Consider `COC(=O)[C@H](CC(C)C)NC(=O)NC(=O)NC(=O)CI`, for which the GI50 with CAKI-1 renal is 1.06 µM; in the assay on 786-0 renal it was 3.02 µM; in the assay with MDA-MB-231 breast, 10.2 µM; with EKVX NSCLC it was 16.1 µM; in the assay on SF-539 CNS it was 3.16 µM; with BT-549 breast it was 5.32 µM. Also, the GI50 was 2.46 µM with RXF 393 renal, 11.3 µM in the assay on SF-268 CNS, 11.9 µM in the assay with SNB-75 CNS and 2.06 µM in the assay on IGROV1 ovarian. The TGI in the assay with CAKI-1 renal worked out at 2.23 µM; in the assay with 786-0 renal it was 11.5 µM; in the assay on MDA-MB-231 breast, 25.8 µM; with EKVX NSCLC it was 29.8 µM; in the assay with SF-539 CNS it was 12.2 µM; in the assay on BT-549 breast, 17.7 µM. In addition, the TGI with RXF 393 renal stood at 6.54 µM; in the assay on SF-268 CNS, 29.1 µM; in the assay with SNB-75 CNS, 28.6 µM; in the assay on IGROV1 ovarian it was 4.64 µM.
Regarding `CC1=C([Se]CC(OC(=O)[C@@H](CO)NC(=O)OC(C)(C)C)C(=O)NC(C)(C)C)C(=O)c2ccccc2C1=O` (some centres not stated), the GI50 with CAKI-1 renal was 1.76 µM; with 786-0 renal it was 1.95 µM; in the assay with MDA-MB-231 breast, 1.62 µM; in the assay on EKVX NSCLC, 1.76 µM; with SF-539 CNS it was 1.57 µM; in the assay on BT-549 breast it was 1.59 µM. The GI50 was 1.86 µM with RXF 393 renal, 1.89 µM in the assay with SF-268 CNS, 1.3 µM in the assay on SNB-75 CNS and 1.66 µM in the assay on IGROV1 ovarian. The TGI was 3.39 µM in the assay on CAKI-1 renal; 3.39 µM in the assay with 786-0 renal; 3.14 µM in the assay on MDA-MB-231 breast; 3.71 µM in the assay with EKVX NSCLC; 3.05 µM in the assay with SF-539 CNS; 2.93 µM with BT-549 breast. For the same compound, the TGI with RXF 393 renal stood at 3.28 µM; with SF-268 CNS, 3.34 µM; with SNB-75 CNS, 2.6 µM; in the assay with IGROV1 ovarian it was 3.27 µM.
